# ± gives the standard deviation of the averaged measurements.
# Experiments:
# Assay in all cases: level (log10 ratio to DMSO vehicle control); higher = higher biomarker level / cell amount than vehicle control
# Conditions in all cases: in DMSO
# [1] = compound: O=S(=O)(Cl)C(F)(F)C(F)(F)C(F)(F)C(F)(F)C(F)(F)C(F)(F)C(F)(F)C(F)(F)F [Perfluoro-1-octanesulfonyl chloride]
# Protocol: (§1)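 BioMAP Diversity Plus panel of 12 human primary cell co-culture systems (3C, 4H, LPS, SAg, BT, BF4T, BE3C, CASM3C, HDF3CGF, KF3CT, MyoF, Mphg). Compounds were added 1 h before stimulation and left for 24 h (MyoF 48 h; BT 72 h for soluble read-outs or 6 d for IgG). Biomarkers were read by ELISA, cytotoxicity by SRB, PBMC viability and proliferation by Alamar Blue. Each well value was divided by the mean of 8 DMSO control wells on the same plate and log10 transformed; duplicate blinded samples were tested at 4 concentrations.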
# [2] = compound: FC(F)(F)C(F)(F)C(F)(F)CC1CO1 [1H,1H-Heptafluorobutyl epoxide]
# Protocol: as §1
# [3] = compound: O=S(=O)(F)C(F)(F)C(F)(F)C(F)(F)C(F)(F)C(F)(F)C(F)(F)C(F)(F)C(F)(F)F [Perfluorooctanesulfonyl fluoride]
# Protocol: as §1
# [4] = compound: FC(F)(F)C(F)(F)C(F)(F)C(F)(F)C(F)(F)C(F)(F)C(F)(F)I [1-Iodopentadecafluoroheptane]
# Protocol: as §1
# [5] = compound: O=S(=O)(O)C(F)(F)C(F)(F)C(F)(F)C(F)(F)C(F)(F)C(F)(F)C(F)(F)C(F)(F)C(F)(F)C(F)(F)F [Sodium perfluorodecanesulfonate]
# Protocol: as §1
Test System,level (log10) ([1]; 6700 nM),level (log10) ([1]; 20000 nM),level (log10) ([1]; 60000 nM),level (log10) ([2]; 6700 nM),level (log10) ([2]; 20000 nM),level (log10) ([2]; 60000 nM),level (log10) ([3]; 6700 nM),level (log10) ([3]; 20000 nM),level (log10) ([3]; 60000 nM),level (log10) ([4]; 6700 nM),level (log10) ([4]; 20000 nM),level (log10) ([5]; 1500 nM),level (log10) ([5]; 4400 nM),level (log10) ([5]; 13000 nM),level (log10) ([5]; 40000 nM)
LPS:CD40,-0.0175 ± 0.081,-0.0145 ± 0.042,-0.027 ± 0.0042,0.0165 ± 0.054,0.0105 ± 0.053,0.026 ± 0.024,0.031 ± 0.12,0.0455 ± 0.094,0.033 ± 0.1,0.0645 ± 0.11,-0.006 ± 0.15,-0.017 ± 0.024,-0.028 ± 0.0099,-0.0525 ± 0.0078,-0.242 ± 0.026
LPS:CD62E/E-Selectin,-0.0105 ± 0.0078,-0.0095 ± 0.00071,0.0585 ± 0.016,0.0105 ± 0.012,-0.009 ± 0.016,0.0035 ± 0.036,0.008 ± 0.0028,0.0015 ± 0.0064,-0.002 ± 0.011,-0.0155 ± 0.005,-0.002 ± 0.0071,-0.019 ± 0.02,-0.045 ± 0.059,-0.0425 ± 0.069,-0.084 ± 0.076
LPS:CD69,-0.0255 ± 0.069,-0.032 ± 0.0071,-0.047 ± 0.052,-0.012 ± 0.031,-0.0365 ± 0.029,0.0095 ± 0.018,-0.019 ± 0.031,-0.0135 ± 0.0092,-0.0335 ± 0.011,-0.0105 ± 0.033,0.037 ± 0.0057,-0.028 ± 0.021,-0.045 ± 0.011,-0.0585 ± 0.00071,-0.16 ± 0.054
LPS:CD106/VCAM-1,-0.018 ± 0.0071,-0.0065 ± 0.0092,-0.022 ± 0.02,0.01 ± 0.017,0.0125 ± 0.0064,0.002 ± 0.0071,0.0025 ± 0.011,-0.0125 ± 0.00071,0.007 ± 0.0085,0.0045 ± 0.016,-0.005 ± 0.0071,-0.0045 ± 0.029,0.0035 ± 0.0078,-0.0265 ± 0.035,-0.076 ± 0.0028
LPS:CD141/Thrombomodulin,-0.035 ± 0.025,-0.028 ± 0.034,0.083 ± 0.014,0.059 ± 0.0071,0.039 ± 0.079,0.019 ± 0.033,0.0105 ± 0.025,0.0045 ± 0.0078,0.0055 ± 0.012,0.0215 ± 0.023,-0.024 ± 0.075,-0.0315 ± 0.0064,0.0015 ± 0.046,-0.021 ± 0.0071,0.071 ± 0.047
LPS:CD142/Tissue Factor,-0.023 ± 0.055,0.0075 ± 0.0078,0.11 ± 0.0092,0.011 ± 0.014,0.0085 ± 0.018,0.015 ± 0.0085,-0.0015 ± 0.0064,0.018 ± 0.011,-0.0065 ± 0.019,0.0105 ± 0.07,0.036 ± 0.02,-0.0155 ± 0.043,-0.011 ± 0.021,-0.06 ± 0.0042,-0.177 ± 0.1
LPS:CXCL8/IL-8,-0.005 ± 0.013,0.0425 ± 0.0092,0.159 ± 0.0057,-0.019 ± 0.031,-0.0135 ± 0.028,0.003 ± 0.031,0.012 ± 0.027,0.011 ± 0.0099,-0.0015 ± 0.005,0.026 ± 0.055,0.0325 ± 0.005,-0.022 ± 0.025,0.032 ± 0.018,0.0335 ± 0.054,-0.176 ± 0.016
MyoF:CXCL8/IL-8,-0.005 ± 0.016,0.0115 ± 0.005,0.138 ± 0.0042,-0.012 ± 0.0028,0.006 ± 0.0099,-0.021 ± 0.0042,0.0095 ± 0.0021,0.023 ± 0.0042,0.0325 ± 0.032,0.028 ± 0.018,0.034 ± 0.038,-0.04 ± 0.0071,-0.039 ± 0.0071,-0.021 ± 0.023,0.02 ± 0.044
MyoF:Collagen I,-0.009,-0.0185 ± 0.00071,-0.0665 ± 0.00071,0.013 ± 0.018,-0.0025 ± 0.00071,-0.0105 ± 0.012,0.0005 ± 0.0035,-0.005 ± 0.0099,0.003 ± 0.016,-0.0495 ± 0.0021,-0.339 ± 0.012,-0.003 ± 0.02,-0.006 ± 0.0028,-0.003 ± 0.0057,-0.0415 ± 0.00071
MyoF:Collagen III,-0.0155 ± 0.0035,-0.0315 ± 0.00071,-0.164 ± 0.035,-0.007 ± 0.011,-0.012 ± 0.011,-0.012 ± 0.0042,0.0095 ± 0.018,-0.0005 ± 0.03,0.009 ± 0.0099,-0.0365 ± 0.005,-0.311 ± 0.093,0.0125 ± 0.037,0.02 ± 0.0057,-0.0005 ± 0.0035,-0.0455 ± 0.0021
MyoF:Collagen IV,0.014 ± 0.011,0.052 ± 0.023,0.241 ± 0.037,-0.0125 ± 0.015,0 ± 0.0099,0.001 ± 0.035,0.0015 ± 0.015,0.023 ± 0.025,0.0235 ± 0.018,0.0705 ± 0.049,0.279 ± 0.09,0.014 ± 0.02,0.035 ± 0.0085,0.0215 ± 0.0035,0.0065 ± 0.033
MyoF:Decorin,-0.007 ± 0.0071,0.014 ± 0.033,0.09 ± 0.085,-0.01 ± 0.014,-0.009 ± 0.028,0.009 ± 0.035,0.001 ± 0.011,-0.013 ± 0.0042,0.016 ± 0.0057,0.0365 ± 0.049,0.0215 ± 0.029,-0.0285 ± 0.016,0.013 ± 0.0099,-0.0025 ± 0.016,0.034
MyoF:MMP-1,-0.013 ± 0.017,-0.0095 ± 0.0092,0.0705 ± 0.061,0.01 ± 0.013,-0.013 ± 0.051,0.0455 ± 0.1,-0.0275 ± 0.013,-0.011 ± 0.0085,-0.007 ± 0.047,0.145 ± 0.045,0.547 ± 0.018,0.038 ± 0.1,-0.022 ± 0.055,-0.012 ± 0.02,0.0165 ± 0.064
MyoF:PAI-I,-0.018 ± 0.016,-0.0325 ± 0.016,-0.0415 ± 0.013,-0.005 ± 0.024,-0.0105 ± 0.012,0 ± 0.016,-0.0045 ± 0.0035,-0.0015 ± 0.00071,0.006 ± 0.0099,-0.013 ± 0.016,-0.075,0.019 ± 0.02,0.0335 ± 0.029,0.0505 ± 0.0035,0.063 ± 0.0085
MyoF:alpha-SM Actin,0.0635 ± 0.0064,0.0665 ± 0.032,-0.0065 ± 0.03,0.012 ± 0.028,-0.0095 ± 0.039,0.0125 ± 0.08,-0.0005 ± 0.015,0.004 ± 0.018,0.0055 ± 0.021,-0.115 ± 0.016,-0.291 ± 0.045,0.01 ± 0.0057,-0.0065 ± 0.013,0.006 ± 0.025,0.0175 ± 0.0021
MyoF:bFGF,-0.007 ± 0.014,-0.039 ± 0.0014,-0.029 ± 0.034,-0.0035 ± 0.0035,-0.002 ± 0.0028,-0.0025 ± 0.015,0 ± 0.0014,-0.0085 ± 0.00071,0.0095 ± 0.018,0.0165 ± 0.016,-0.0075 ± 0.015,0.0025 ± 0.005,0.033,0.015 ± 0.0057,0.023 ± 0.011
lMphg:CCL2/MCP-1,0.0175 ± 0.0092,0.0255 ± 0.0092,0.032 ± 0.0028,-0.0075 ± 0.011,-0.021 ± 0.021,0.0105 ± 0.026,-0.004 ± 0.023,-0.0245 ± 0.023,-0.0165 ± 0.0021,0.009 ± 0.0085,0.018 ± 0.02,0.022 ± 0.0028,-0.0035 ± 0.013,0.0135 ± 0.005,0.0225 ± 0.026
lMphg:CCL3/MIP-1alpha,0.038 ± 0.03,0.004 ± 0.041,0.025 ± 0.018,-0.039 ± 0.0057,-0.0135 ± 0.019,0.0135 ± 0.015,-0.0035 ± 0.053,-0.004 ± 0.021,-0.001 ± 0.017,0.0225 ± 0.023,0.0175 ± 0.049,-0.008 ± 0.025,0.0015 ± 0.012,0.0195 ± 0.047,0.0425 ± 0.0035
lMphg:CD62E/E-Selectin,-0.0085 ± 0.0035,-0.0165 ± 0.037,0.073 ± 0.014,-0.001 ± 0.059,-0.005 ± 0.035,0.0525 ± 0.025,-0.0175 ± 0.013,-0.0205 ± 0.0035,-0.028 ± 0.014,0.016 ± 0.014,0.0355 ± 0.0078,-0.011 ± 0.0014,-0.0265 ± 0.028,0.0135 ± 0.018,0.0205 ± 0.021
lMphg:CD106/VCAM-1,0.008 ± 0.0057,0.0135 ± 0.0078,0.0255 ± 0.00071,0.003 ± 0.011,0.012 ± 0.016,0.0095 ± 0.011,0.009 ± 0.017,0.0205 ± 0.012,-0.0125 ± 0.0092,-0.0025 ± 0.0064,-0.007 ± 0.017,-0.0065 ± 0.012,-0.0215 ± 0.018,-0.021 ± 0.0071,-0.0515 ± 0.0078
lMphg:IL-1alpha,-0.0225 ± 0.033,-0.005 ± 0.042,0.021 ± 0.088,-0.012 ± 0.0071,-0.025 ± 0.0071,-0.002 ± 0.028,0.01 ± 0.013,-0.0025 ± 0.005,0.0185 ± 0.019,0.03 ± 0.045,0.014 ± 0.0085,0.0345 ± 0.021,-0.002 ± 0.028,0.032 ± 0.013,0.0505 ± 0.03
lMphg:M-CSF,-0.023 ± 0.042,-0.012 ± 0.031,0.0215 ± 0.04,0.0065 ± 0.013,-0.003 ± 0.011,0.003 ± 0.04,-0.006 ± 0.03,-0.03 ± 0.016,-0.0335 ± 0.00071,-0.0015 ± 0.042,0.015 ± 0.0014,-0.0215 ± 0.0035,-0.0255 ± 0.03,-0.013 ± 0.021,0.0255 ± 0.028
lMphg:SRB,-0.004 ± 0.0014,-0.004 ± 0.011,-0.002 ± 0.0071,-0.001 ± 0.0028,0.0025 ± 0.0035,-0.002 ± 0.0085,0.005 ± 0.0099,-0.0085 ± 0.0092,-0.0015 ± 0.0092,-0.01 ± 0.0014,-0.0015 ± 0.0021,-0.0075 ± 0.012,-0.0025 ± 0.00071,-0.001 ± 0.0099,-0.011 ± 0.0099
lMphg:sIL-10,0.0345 ± 0.054,-0.071 ± 0.1,-0.341 ± 0.033,-0.0515 ± 0.022,-0.047 ± 0.031,-0.01 ± 0.011,-0.0605 ± 0.096,-0.0755 ± 0.11,0.0005 ± 0.063,0.004 ± 0.081,-0.0995 ± 0.021,-0.0235 ± 0.00071,-0.122 ± 0.019,-0.0595 ± 0.00071,-0.269 ± 0.06
